By GI50 is commonly meant the concentration giving 50% growth inhibition. As usually defined, the TGI is the concentration giving total growth inhibition. Lower therefore signals greater sensitivity of the cells.

Assay in all cases: DTP human tumour cell line panel, 48 h
Assay [1] relates to HCT-116 colon.
For assay [2], the system named is SR leukemia.
For assay [3], the system named is CAKI-1 renal.
The test system of assay [4] is M14 melanoma.
Assay [5] deals with T-47D breast.
Assay [6] has as its system TK-10 renal.
Assay [7] concerns CCRF-CEM leukemia.
The subject of assay [8] is HOP-92 NSCLC.
Assay [9] has as its system LOX IMVI melanoma.
The subject of assay [10] is BT-549 breast.

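Exposure lasted 48 hours, with cells grown in 96-well plates and compounds tested at five concentrations. At the GI50, growth is halved. At the TGI there is no net growth.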

`CCOC(=O)C1=C(c2ccccc2)N(c2ccc(OC)cc2)[C@]2(C#N)C(O)=C(Cl)C(Cl)=C(O)[C@]12C#N`: the GI50 is 16.3 µM in assay [1]; 11.5 µM in [2]; 27.9 µM in [3]; 20.9 µM in [4]; 21.2 µM in assay [5]; 24.3 µM in assay [6]. Besides, the GI50 in assay [7] is 10.1 µM; in [8], 0.545 µM; in assay [9], 16.4 µM; in [10] it was 24.2 µM. The TGI worked out at 29.8 µM in [1]; 28.8 µM in assay [2]; 80.1 µM in assay [3]; 41.3 µM in [4]; 44.9 µM in assay [5]; 74.8 µM in assay [6]. Further, the concentration for total growth inhibition (TGI) was 23.6 µM in assay [7], 23.3 µM in [8], 30.9 µM in [9] and 56.4 µM in [10].

Regarding `CCN1CCC(CC(=O)Nc2n[nH]c3nc(-c4cccs4)c(Br)cc23)CC1`, the GI50 was 7.81 µM in [1]; 11.2 µM in [2]; 4.29 µM in [3]; 6.88 µM in assay [4]; 12.4 µM in assay [5]; 5.81 µM in assay [6]. In addition, the GI50 is 9.57 µM in assay [7], more than 24.1 µM in assay [8], 5.11 µM in [9] and more than 23 µM in assay [10]. Also, the TGI in [1] is more than 23.4 µM; in [2] it was more than 25 µM; in [3], more than 25 µM; in [4] it was 14.6 µM; in assay [5], more than 25 µM; in assay [6], more than 21.4 µM. Besides, the concentration for total growth inhibition (TGI) in assay [7] is more than 25 µM; in assay [8] it was more than 25 µM; in assay [9] it was 14.1 µM; in [10], more than 25 µM.

Take `O=C(/C=C\c1ccc2ccccc2n1)c1cc(Cl)ccc1O`: the GI50 is 3.38 µM in assay [1]; 2.48 µM in [2]; 5.49 µM in assay [3]; 4.92 µM in assay [4]; 3.68 µM in assay [5]; 7.88 µM in assay [6]. Further, the GI50 in assay [7] was 2.16 µM; in assay [8], 1.82 µM; in assay [9], 2.84 µM; in assay [10], 4.82 µM. The TGI in assay [1] worked out at 11.3 µM; in [2], 8.11 µM; in assay [3] it was 21.5 µM; in assay [4], 17.2 µM; in assay [5], 19 µM; in assay [6], 85.3 µM. In addition, the TGI in assay [7] came out at 8.29 µM; in assay [8], 9.35 µM; in assay [9], 11.7 µM; in assay [10], 17 µM.

For the molecule `COc1cc2c(cc1OC)-c1c(c3ccc([N+](=O)[O-])cc3c(=O)n1CCCN)C2=O`, the GI50 in [1] is 0.57 µM; in assay [2] it was 0.0386 µM; in [3], 0.658 µM; in [4], 0.00971 µM; in assay [5], 0.271 µM; in assay [6], 7.24 µM. Also, the GI50 was 0.495 µM in [7], 7.29 µM in assay [8], 0.325 µM in assay [9] and 1.79 µM in assay [10]. Also, the TGI in assay [1] was found to be 1.46 µM; in [2], 0.346 µM; in assay [3], 9.16 µM; in [4], 1.57 µM; in assay [5], 8.47 µM; in [6], 17.1 µM. Moreover, the TGI was 2.4 µM in assay [7], 16.5 µM in assay [8], 1.17 µM in assay [9] and 4.49 µM in assay [10].

In the case of `COc1ccc(C(=O)CC(c2ccc(OC)c(OC)c2)c2c(O)c3ccccc3oc2=O)cc1OC` (configuration not stated), the TGI in assay [1], in assay [2], in assay [3], in assay [4], in assay [5] and in [6] was more than 100 µM in each case. The TGI in assay [7], in assay [8], in assay [9] and in [10] was more than 100 µM each time.

Consider `CC1(C)Cc2c(Br)c(Br)c(Br)c(OCC(O)CN3CCOCC3)c2O1` (configuration not stated), for which the GI50 in assay [1] is 15.4 µM; in [2], 5.14 µM; in [3], 12.3 µM; in assay [4] it was 17.9 µM; in assay [5], 13.1 µM; in assay [6], 14.5 µM. In addition, the GI50 was 10.2 µM in [7], 3.76 µM in [8], 13.6 µM in assay [9] and 10.5 µM in assay [10]. Moreover, the TGI was found to be 45.2 µM in [1]; 18.4 µM in [2]; 27.4 µM in assay [3]; 37.1 µM in [4]; 27.3 µM in assay [5]; 30 µM in assay [6]. Besides, the concentration for total growth inhibition (TGI) in assay [7] was determined as 24.1 µM; in assay [8], 21.5 µM; in assay [9], 27.9 µM; in assay [10], 22.3 µM.

With `Cc1ccc(C[P+](c2ccccc2)(c2ccccc2)c2ccccc2)cc1`, the GI50 in assay [1] is 0.382 µM; in [2] it was 1.04 µM; in [3], 0.486 µM; in assay [4], 1.32 µM; in assay [5], 0.314 µM; in [6] it was 1.71 µM. The GI50 in assay [7] was 1.31 µM; in [8] it was 0.768 µM; in assay [9], 1.07 µM; in [10], 0.671 µM. For the same molecule, the TGI in assay [1] was 5.21 µM; in assay [3] it was 17.3 µM; in assay [4], 11.1 µM; in assay [6], 23.4 µM; in [8], 22.2 µM; in assay [9], 4.24 µM. In [10], this molecule yielded a TGI of 14.3 µM.

Consider `CC(C)=CC1CC(C)C2(CCC3(C)CC4C(C(=O)CC4(C)O)/C(C=O)=C\CC32)O1` (configuration not stated), for which the TGI in [1] came out at 0.15 µM; in [2], 0.0945 µM; in assay [3], 0.192 µM; in assay [4], 0.311 µM; in assay [5], 0.143 µM; in assay [6] it was 0.0596 µM. The TGI came to 0.0422 µM in assay [7], 0.2 µM in assay [8], 0.182 µM in assay [9] and 0.351 µM in assay [10].

(Values after PubChem BioAssay (NCI).)
